From ChEMBL document CHEMBL1201862, “PubChem BioAssay data set” (2004)
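Where inhibition never reached the appropriate level, the endpoint shown equals the highest concentration tested. Otherwise, values were interpolated linearly from a five-concentration, 48-hour dose response in 96-well plates. GI50 marks 50% less growth.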 Calls of active or inactive are those of the source. Rule as the data show it: active = GI50 up to about 1.1 µM and inactive = higher.

Tests used:
Assay in all cases: growth of human tumour cells (NCI), 48 h
NCI/ADR-RES = system: NCI/ADR-RES
SK-MEL-2 = system: SK-MEL-2
SW-620 = system: SW-620
COLO 205 = system: COLO 205
HL-60 = system: HL-60
DU-145 = system: DU-145
RXF 393 = system: RXF 393
SK-OV-3 = system: SK-OV-3
Hs-578T = system: Hs-578T
NCI-H226 = system: NCI-H226
SF-295 = system: SF-295
SNB-19 = system: SNB-19
HCT-15 = system: HCT-15
HT-29 = system: HT-29
786-0 = system: 786-0
UO-31 = system: UO-31
SF-539 = system: SF-539
Malme-3M = system: Malme-3M
SR = system: SR

| SMILES | GI50 (NCI/ADR-RES) | GI50 (SK-MEL-2) | GI50 (SW-620) | GI50 (COLO 205) | GI50 (HL-60) | GI50 (DU-145) | GI50 (RXF 393) | GI50 (SK-OV-3) | GI50 (Hs-578T) | GI50 (NCI-H226) | GI50 (SF-295) | GI50 (SNB-19) | GI50 (HCT-15) | GI50 (HT-29) | GI50 (786-0) | GI50 (UO-31) | GI50 (SF-539) | GI50 (Malme-3M) | GI50 (SR) |
| --- | --- | --- | --- | --- | --- | --- | --- | --- | --- | --- | --- | --- | --- | --- | --- | --- | --- | --- | --- |
| COc1ccc(/C=C2\NC(=S)N(/C=C3\C(=O)Oc4ccccc4C3=O)C2=O)cc1OC | > 100 µM (inactive) | > 100 µM (inactive) | > 100 µM (inactive) | > 100 µM (inactive) | 22.4 µM (inactive) | > 100 µM (inactive) | 77.6 µM (inactive) | > 100 µM (inactive) | 87.5 µM (inactive) | > 100 µM (inactive) | > 100 µM (inactive) | > 100 µM (inactive) | 93.5 µM | > 100 µM (inactive) | > 100 µM (inactive) | 54.6 µM (inactive) | > 100 µM (inactive) | – | – |
| CCOC(=O)c1cn2c(n1)sc1cc(Cl)cc(Cl)c12 | > 100 µM (inactive) | > 100 µM (inactive) | > 100 µM (inactive) | > 100 µM (inactive) | – | > 100 µM (inactive) | > 100 µM (inactive) | > 100 µM (inactive) | > 100 µM (inactive) | > 100 µM (inactive) | > 100 µM (inactive) | > 100 µM (inactive) | > 100 µM | > 100 µM (inactive) | > 100 µM (inactive) | > 100 µM (inactive) | > 100 µM (inactive) | > 100 µM (inactive) | > 100 µM (inactive) |
| CN(C)CC1CCC/C(=C\c2ccc(OC(=O)c3ccc(Cl)cc3)cc2)C1=O (configuration not stated) | 2.12 µM (inactive) | 4.31 µM (inactive) | 1.1 µM (active) | 1.97 µM (inactive) | 1.32 µM (inactive) | 2.39 µM (inactive) | – | 10.3 µM (inactive) | 2.57 µM (inactive) | 3.06 µM (inactive) | 3.84 µM (inactive) | 3.36 µM (inactive) | 1.57 µM | 1.95 µM (inactive) | 0.867 µM (active) | 1.5 µM (inactive) | 3 µM (inactive) | 2.55 µM (inactive) | 0.583 µM (active) |
| O=C1CC(=O)NC(NN2C(=O)CSC2c2ccccc2)=N1 (configuration not stated) | > 100 µM (inactive) | > 100 µM (inactive) | > 100 µM (inactive) | > 100 µM (inactive) | – | > 100 µM (inactive) | > 100 µM (inactive) | > 100 µM (inactive) | > 100 µM (inactive) | > 100 µM (inactive) | > 100 µM (inactive) | – | > 100 µM | > 100 µM (inactive) | > 100 µM (inactive) | > 100 µM (inactive) | > 100 µM (inactive) | > 100 µM (inactive) | > 100 µM (inactive) |
| COc1cc2c(cc1OCc1ccccc1)NC(=O)[C@@H]1CCCN1C2=O | > 100 µM (inactive) | > 100 µM (inactive) | > 100 µM (inactive) | > 100 µM (inactive) | – | > 100 µM (inactive) | 82 µM (inactive) | > 100 µM (inactive) | > 100 µM (inactive) | > 100 µM (inactive) | > 100 µM (inactive) | > 100 µM (inactive) | > 100 µM | > 100 µM (inactive) | > 100 µM (inactive) | > 100 µM (inactive) | > 100 µM (inactive) | > 100 µM (inactive) | > 100 µM (inactive) |
| CCOC(=O)CCC(NC(=O)Cc1ccc(Nc2nc3cc(F)c(F)cc3nc2C(=O)OCC)cc1)C(=O)OCC (configuration not stated) | > 100 µM (inactive) | 23.7 µM (inactive) | 73.6 µM (inactive) | > 100 µM (inactive) | 21.5 µM (inactive) | > 100 µM (inactive) | – | > 100 µM (inactive) | 40.8 µM (inactive) | > 100 µM (inactive) | > 100 µM (inactive) | > 100 µM (inactive) | > 100 µM | > 100 µM (inactive) | > 100 µM (inactive) | > 100 µM (inactive) | > 100 µM (inactive) | 88.1 µM (inactive) | 27.5 µM (inactive) |
| O=C1Nc2ccccc2C1S(=O)(=O)c1ccccc1 (configuration not stated) | > 100 µM (inactive) | > 100 µM (inactive) | > 100 µM (inactive) | > 100 µM (inactive) | – | > 100 µM (inactive) | > 100 µM (inactive) | > 100 µM (inactive) | > 100 µM (inactive) | > 100 µM (inactive) | > 100 µM (inactive) | > 100 µM (inactive) | > 100 µM | > 100 µM (inactive) | > 100 µM (inactive) | > 100 µM (inactive) | – | > 100 µM (inactive) | > 100 µM (inactive) |
| CC(=N/NC(=S)N1CCCCC1)/C(=N\NC(=S)N1CCCCC1)c1ccccc1 | 2.65 µM (inactive) | 2.11 µM (inactive) | 2.15 µM (inactive) | 2.22 µM (inactive) | – | 0.512 µM (active) | 1.35 µM (inactive) | 1.95 µM (inactive) | 1.84 µM (inactive) | 1.91 µM (inactive) | 1.87 µM (inactive) | 1.87 µM (inactive) | 2.1 µM | 2.1 µM (inactive) | 1.99 µM (inactive) | 1.76 µM (inactive) | 2.67 µM (inactive) | 2.13 µM (inactive) | – |
| CC1CC2(OC2C)C(=O)OC2CCN(C)C/C=C(/COC(=O)C1(C)O)C2=O (configuration not stated) | > 100 µM (inactive) | > 100 µM (inactive) | > 100 µM (inactive) | > 100 µM (inactive) | > 100 µM (inactive) | > 100 µM (inactive) | > 100 µM (inactive) | > 100 µM (inactive) | > 100 µM (inactive) | – | > 100 µM (inactive) | > 100 µM (inactive) | > 100 µM | > 100 µM (inactive) | > 100 µM (inactive) | > 100 µM (inactive) | > 100 µM (inactive) | > 100 µM (inactive) | – |
| Cc1oc2c(Cl)cc(O)c(Cl)c2c2cccc1-2 | 28.8 µM (inactive) | 33.3 µM (inactive) | 32.5 µM (inactive) | 30.4 µM (inactive) | 25.8 µM (inactive) | 8.85 µM (inactive) | – | > 100 µM (inactive) | 34.8 µM (inactive) | 14.2 µM (inactive) | 31.6 µM (inactive) | 42.8 µM (inactive) | 21.5 µM | 35.2 µM (inactive) | 21.9 µM (inactive) | 36.4 µM (inactive) | 20.1 µM (inactive) | 25.7 µM (inactive) | 12.5 µM (inactive) |
| O=P(O)(O)CC1OC(CO)C(O)C1O (configuration not stated) | > 100 µM (inactive) | > 100 µM (inactive) | > 100 µM (inactive) | > 100 µM (inactive) | > 100 µM (inactive) | > 100 µM (inactive) | > 100 µM (inactive) | > 100 µM (inactive) | > 100 µM (inactive) | > 100 µM (inactive) | > 100 µM (inactive) | > 100 µM (inactive) | > 100 µM | > 100 µM (inactive) | > 100 µM (inactive) | > 100 µM (inactive) | > 100 µM (inactive) | > 100 µM (inactive) | – |
| CC1=C(C)SC(=C2Sc3[n-]c(=O)[nH]c(=O)c3S2)S1.CCCC[N+](CCCC)(CCCC)CCCC | 95.9 µM (inactive) | – | > 100 µM (inactive) | > 100 µM (inactive) | < 0.01 µM (active) | > 100 µM (inactive) | > 100 µM (inactive) | > 100 µM (inactive) | > 100 µM (inactive) | > 100 µM (inactive) | > 100 µM (inactive) | 73.1 µM (inactive) | > 100 µM | > 100 µM (inactive) | > 100 µM (inactive) | > 100 µM (inactive) | 44.5 µM (inactive) | 20.6 µM (inactive) | 35.9 µM (inactive) |
| COc1ccc(C2CC(c3c(O)ccc4ccccc34)=NN2c2ccc([N+](=O)[O-])cc2[N+](=O)[O-])cc1OC (configuration not stated) | 3.66 µM (inactive) | 19.4 µM (inactive) | 39.9 µM (inactive) | 22.3 µM (inactive) | – | 30.3 µM (inactive) | 24.4 µM (inactive) | 26.4 µM (inactive) | 19.4 µM (inactive) | 13.9 µM (inactive) | 12.2 µM (inactive) | 15.3 µM (inactive) | 27 µM | 10.6 µM (inactive) | 29 µM (inactive) | 9.25 µM (inactive) | 26.1 µM (inactive) | 17.4 µM (inactive) | – |
| Cc1c[nH]c(C(=O)O)c1-c1cccn1-c1ccc(Cl)cc1[N+](=O)[O-] | 72.3 µM (inactive) | > 100 µM (inactive) | > 100 µM (inactive) | > 100 µM (inactive) | – | > 100 µM (inactive) | 83 µM (inactive) | > 100 µM (inactive) | > 100 µM (inactive) | 92.3 µM (inactive) | 73.8 µM (inactive) | – | > 100 µM | > 100 µM (inactive) | > 100 µM (inactive) | 45.9 µM (inactive) | > 100 µM (inactive) | – | 99.3 µM (inactive) |
| NS(=O)(=O)c1cc2c(cc1Cl)N=C(CCC(=O)O)NS2(=O)=O | > 100 µM (inactive) | > 100 µM (inactive) | > 100 µM (inactive) | > 100 µM (inactive) | – | > 100 µM (inactive) | > 100 µM (inactive) | > 100 µM (inactive) | > 100 µM (inactive) | > 100 µM (inactive) | > 100 µM (inactive) | > 100 µM (inactive) | > 100 µM | > 100 µM (inactive) | > 100 µM (inactive) | > 100 µM (inactive) | > 100 µM (inactive) | > 100 µM (inactive) | – |
| CCc1nc2c(n1CC)C(=O)c1ccccc1C2=O | 31.2 µM (inactive) | – | 26.7 µM (inactive) | 16.8 µM (inactive) | 32.7 µM (inactive) | 66.5 µM (inactive) | 19.8 µM (inactive) | – | 67.6 µM (inactive) | 28.6 µM (inactive) | 48.1 µM (inactive) | 45.6 µM (inactive) | 38.3 µM | 24.9 µM (inactive) | > 100 µM (inactive) | – | 44.4 µM (inactive) | 15.5 µM (inactive) | 37.4 µM (inactive) |
